Data reported in PubChem BioAssay (NCI).
“And” between values parts separate entries of the source, which are not always exact repeats. Equal entries are not always repeated.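 Five compound concentrations were applied to cells in 96-well plates for 48 hours; endpoints were derived by simple linear interpolation of the resulting dose-response curve. GI50 marks 50% less growth. Definition used: TGI = concentration required for complete inhibition of growth.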

Columns and labels:
Assay in all cases: NCI-60 cell line screen, 48 h
[1] = system: A498 renal
[2] = system: A549 NSCLC
[3] = system: CCRF-CEM leukemia
[4] = system: DMS 114 small cell lung
[5] = system: HL-60(TB) leukemia
[6] = system: OVCAR-3 ovarian
[7] = system: SK-MEL-2 melanoma
[8] = system: SNB-78 CNS
[9] = system: HS 578T breast
[10] = system: RXF 393 renal

Row | SMILES | GI50 [1] | TGI [1] | GI50 [2] | TGI [2] | GI50 [3] | TGI [3] | GI50 [4] | TGI [4] | GI50 [5] | TGI [5] | GI50 [6] | TGI [6] | GI50 [7] | TGI [7] | GI50 [8] | TGI [8] | GI50 [9] | TGI [9] | GI50 [10] | TGI [10]
1 | CCOC(=O)[C]1([Bi]([CH3])[CH3])N=NC(C(=O)OC)=C1C(=O)OC (configuration not stated) | 25.7 µM | 49 µM | > 10 µM | > 10 µM | 11.3 µM | 37.6 µM | 20 µM | 40 µM | 21.2 µM | 52.1 µM | 16.5 µM | 31.7 µM | 18.3 µM | 33.7 µM | 27.4 µM | > 100 µM |  |  |  | 
2 | Oc1ccc(CN2CCC(N3CCCCC3)CC2)c2cccnc12 | > 100 µM | > 100 µM | 6.68 µM | > 100 µM | 36.1 µM | > 100 µM |  |  | 6.86 µM | 46.7 µM | 27.5 µM | > 100 µM | 27.9 µM | > 100 µM |  |  | 17.6 µM | > 100 µM | 11.7 µM | > 100 µM
3 | OCc1c[nH]c2ccccc12 | 31.3 µM | > 100 µM | 20.8 µM | 57.9 µM | 26.9 µM | > 100 µM |  |  | 35.1 µM | 77.3 µM | 20.3 µM | 49.3 µM | 17.4 µM | 32.8 µM |  |  | 33.9 µM | > 100 µM | 18.2 µM | 43.8 µM
4 | C=C1C(=O)O[C@H]2[C@H]1CC/C(Cn1cc(-c3ccc(OC)cc3)nn1)=C\CC[C@@]1(C)O[C@@H]21 | 2.35 µM | 11.3 µM | 10.9 µM | 24.4 µM | 0.29 µM | 0.823 µM |  |  | 1.17 µM | 3.86 µM | 0.569 µM | 1.8 µM | 1.95 µM | 4.61 µM |  |  | 7.42 µM | 36.9 µM | 0.703 µM | 2.02 µM
5 | O=C(N/N=C/c1ccccc1O)c1ccccc1Nc1ccnc(C(F)(F)F)c1 | 18.1 µM | > 91.6 µM | 0.505 µM | > 30.9 µM | 0.123 µM |  |  |  | 0.293 µM | 1.69 µM | 0.45 µM | 22.6 µM | 3.61 µM | > 60.5 µM |  |  | 12.9 µM | > 100 µM | 1.05 µM | > 40.3 µM
6 | CCOc1cc2c(Cl)ncnc2c(OCC)c1OCC | 6.48 µM | 19.1 µM | 24.6 µM | > 79.8 µM | 2.6 µM | 6.85 µM |  |  | 2.35 µM | 15.5 µM | 4 µM | 10.8 µM | 3.61 µM | 10.3 µM |  |  | 2.07 µM | 5.45 µM | 7.74 µM | 22.1 µM
7 | O/N=C/C1c2ccccc2-c2ccccc21 |  | 32.9 µM |  | 51.5 µM |  | 50.4 µM |  |  |  | 93.7 µM |  | 34.1 µM |  | 36.1 µM |  |  |  | 47.6 µM |  | 41.5 µM
8 | OCC(O)CC[CH2][Sn]([Br])([c]1ccccc1)[c]1ccccc1 (configuration not stated) |  |  | > 100 µM | > 100 µM | > 100 µM | > 100 µM |  |  | 52 µM | > 100 µM | > 100 µM | > 100 µM | > 100 µM | > 100 µM | > 100 µM | > 100 µM |  |  | > 100 µM | > 100 µM
9 | N#Cc1ccc(NC(=O)Nc2ccc(Oc3ccc(NC(=O)Nc4ccc(C#N)cc4)cc3)cc2)cc1 | 15.9 µM | 61.2 µM | 17.8 µM | > 100 µM | 22.1 µM | > 100 µM |  |  | 1.17 µM | 83.8 µM | 19.4 µM | > 100 µM | 22.4 µM | 88.9 µM |  |  | 7.49 µM | > 100 µM | 15.3 µM | > 100 µM
10 | Nc1nc(Cl)c2ncn(Cc3ccc(C45CC6CC(CC(C6)C4)C5)c(O)c3)c2n1 | 8.15 µM | 24.4 µM | 1.29 µM | 3.17 µM | 0.809 µM | 10.6 µM |  |  | 1.22 µM | 11.7 µM | 2.32 µM | 11.1 µM | 16 µM | 48.3 µM |  |  | 2.29 µM | 12.1 µM | 1.87 µM | 6.56 µM
11 | [Cl-].[Dy+3].[O-]/N=C(\c1ccccc1)c1ccccn1.[O-]/N=C(\c1ccccc1)c1ccccn1.[O-]/N=C(\c1ccccc1)c1ccccn1 | 25.8 µM | > 100 µM | 32.2 µM | > 100 µM | 23.6 µM | 97.4 µM | 24.6 µM | 77.6 µM | 18.4 µM | 58.4 µM | 24.4 µM | 92.6 µM | 27.3 µM | 64.8 µM |  |  |  |  |  | 
12 | CC/C(=C(/c1ccc(O)cc1)c1ccc(OCCNC)cc1)c1ccccc1 | 1.64 µM | 6.55 µM | 1.89 µM | 3.95 µM | 2.39 µM | 6.88 µM |  |  | 2.03 µM | 4.55 µM | 2.1 µM | 4.52 µM | 2.08 µM | 3.77 µM |  |  | 1.87 µM | 5.16 µM | 1.68 µM | 3.69 µM
13 | O=C(/C(Br)=C/c1ccccc1)c1ccccc1 | 15.5 µM | 30 µM | 14.2 µM | 28.5 µM | 0.39 µM | 2.01 µM |  |  | 2.22 µM | 6.47 µM | 2.2 µM | 5.59 µM | 3.17 µM | 7.38 µM |  |  | 8.12 µM | 52.4 µM | 1.43 µM | 2.85 µM
14 | CC(C)(C)OC(=O)N1CCc2c(sc3ncnc(N/N=C/c4cccc5ccccc45)c23)C1 | 2.3 µM | 9.79 µM | 3.64 µM | > 100 µM | 3.6 µM | > 100 µM |  |  | 2.81 µM | 13.4 µM | 3.95 µM | 77.7 µM | 4.38 µM | 25.9 µM |  |  | 2.4 µM | > 100 µM | 2.54 µM | 7.41 µM
15 | COc1cc2c(c(O)c1Br)C(=O)c1c(O)cc(C[C@H](C)O)cc1[C@H]2[C@H]1c2cc(C[C@H](C)O)cc(O)c2C(=O)c2c1cc(OC)c(Br)c2O | 4.35 µM and 22.5 µM | 35.1 µM and 58.5 µM | 10.1 µM and 20.9 µM | 32.9 µM and > 100 µM | 3.86 µM and 14.3 µM | 67.5 µM and 92.9 µM |  |  | 3.28 µM and 17.4 µM | 28 µM and 48.5 µM | 15.3 µM and 31.1 µM | 67.5 µM and > 100 µM | 6.37 µM and 18.1 µM | 19.6 µM and 44 µM |  |  | 2.99 µM and 4.1 µM | 67.5 µM and 65.9 µM | 2.59 µM and 2.72 µM | 22 µM and 9.33 µM
